Laboratory results taken from publication PMC12812009, “Optimization of 4‐Amino‐2‐Pyridone Inhibitors of Proprotein Convertase Subtilisin/Kexin Type 9: Integrating Structure–Activity and Structure–Metabolism Relationships” (Chemmedchem, 2025).
Read-outs that look alike come from different tables or passages of the source.

Tests used:
[1] = In vitro metabolic stability with mouse liver microsomes; assay type: in vitro ADME; details: for metabolic stability/PCSK9 IC50 ratio (in words): with respect to 5c; for metabolic stability (in words): MLM + NADPH-generating system
Experimental: All newly synthesized LSF derivatives of 5c were biologically evaluated to determine whether the introduced modifications influenced both metabolic stability and anti‐PCSK9 activity. Microsomal stability assays were conducted to assess the impact of LSF modifications on improving the stability of 5c. In these assays, LSF derivatives were incubated with mouse liver microsomes (MLM) and an NADPH‐generating system for 60 min, followed by HPLC analysis. Control samples included compounds and liver microsomes without the NADPH system, allowing for the assessment of nonspecific binding to microsomes. […] Acylated derivatives 12, 13, and 14 achieved stability levels exceeding 95%, as did the bicyclic derivative 7, which exemplifies a dual‐site functionalization.
MLM (pooled male) were obtained from Xenotech, LLC (Cambridge, Kansas City, USA). Glucose‐6‐phosphate (G6P), oxidized nicotinamide‐adenine‐dinucleotide phosphate (NADP^+), magnesium chloride (MgCl2), and glucose‐6‐phosphate‐dehydrogenase (G6PDH) were supplied by Sigma‐Aldrich (Milan, Italy). Metabolic stability assays were modified from Ferlenghi et al.^[ [33] ^] Briefly, samples were prepared in 100 mM phosphate buffered saline (PBS), pH 7.4, containing 1 mg ml^–1 MLM and a NADPH‐generating system (5 mM MgCl2, 10 mM glucose‐6‐phosphate, 2 mM NADP^+, 1.5 U ml^–1 of glucose‐6‐phosphate dehydrogenase). After incubation (37 °C, 5 min stirring), compounds stock solutions in DMSO were added to a final concentration of 10 µM. The final DMSO percentage in samples was kept at 0.5%. After 60 min, single aliquots of reaction mixture were withdrawn, added of two volumes of acetonitrile, centrifuged (10,000 g, 10 min) and the supernatant was analyzed by HPLC. The unspecific binding to MLM was evaluated by means of control samples in which the compounds were incubated in the absence of a NADPH generating system. The apparatus used for HPLC analysis was a Shimadzu instrument, with a reverse‐phase Nova‐Pak column (Waters) (C18 4 μm 3.9 × 150 mm, Waters). The mobile phase, pumped at a flow rate of 1.2 ml min^–1, consisted of water and acetonitrile in either a 50:50 (v/v) ratio (compounds 5c, 6a, 6b, 6c, 7, 8, 12, 13, 14, 17b) or a 40:60 (v/v) ratio (compounds 11 and 15) or a 30:70 (v/v) ratio (for compounds 17a, 18a, 18b). For compounds 9 and 10, a phosphate buffer (5.98 g L^–1 Na2HPO4, 0.19 g L^–1 KH2PO4, adjusted to pH 7.4 with 85% H3PO4 and supplemented with 1.4 mL L^–1 triethylamine; final pH: 8) and acetonitrile (50:50, v/v) were pumped at a flow rate of 2 mL min^–1. In all cases, column temperature was 35 °C, injection volume was 50 µl, and absorbance was monitored at 254 nm. Serial dilutions for the calibration curves were prepared in the interval 0.5–20 µM in either PBS:CH3CN or H2O:CH3CN mixture (50:50, v/v) for compounds 5c, 6a, 6b, 8, 9, 10, 11, 12, 13, 14, 15, 17a, 17b, 18a, 18b, and in acetonitrile for compounds 6c and 7.

[2] = MTT cell viability assay in HepG2 cell cultures; assay type: cell-based, human; details: human, HepG2 cells, MTT
Experimental: The approach we set‐up to test the new PCSK9i was based on functional assay, which evaluated at the same time compounds cytotoxicity, and their effect on the secreted PCSK9 on the same cell line. First, cell viability was evaluated in HepG2 cell cultures using the MTT assay (CC50 values are reported in Table 1 and Figure 5 ) after 24 h of incubation in starving conditions (0.4% fetal bovine serum (FBS)). The low FBS concentration, and thus low extracellular lipoproteins, stimulates the sterol responsive element binding protein (SREBP) pathway, inducing the expression of LDLR, PCSK9, HMG‐CoA reductase,^[ [28] ^] thus increasing the uptake of exogenous cholesterol and enhancing the synthesis of endogenous cholesterol. This first step allowed us to calculate the CC50 and identify the noncytotoxic concentrations (viability higher than 90%; Table 1), then tested for PCSK9 inhibitory activity.
Cell viability was assessed using the MTT assay. Cells were seeded in 96‐well plates (2.5 × 10^4 cells/well) in MEM supplemented with 10% v/v FBS and incubated for 24 h. The cells were then treated with the synthesized compounds dissolved in DMSO at increasing concentrations (from 0.5 to 50 µM) in MEM supplemented with 0.4% v/v FBS for 24 h. Simvastatin [20 and 40 µM] and BBR [10 µM] (both from Merck, St. Louis, Missouri, USA) were used as internal controls as PCSK9 inducer and inhibitor, respectively.^[ [21] ^, [34] ^, [35] ^] The cells were then incubated for 2 h with a solution of MTT [1 mg mL^–1] in MEM supplemented with 0.4% v/v FBS, away from light sources. The supernatant was then collected and 200 µL of DMSO was added to each well to solubilize the newly formed formazan. Finally, an aliquot of 100 µL was taken to measure the absorbance at a wavelength of 570 nm using an absorbance microplate reader (Spark Tecan, Switzerland). Every experimental condition was run in duplicate and the average cell viability and standard deviation was calculated. Cell viability was expressed as the percentage of treated cells compared to untreated (basal) cells. CC50 values for each compound were calculated by interpolating the percentage of cell viability through nonlinear regression analysis of the log (inhibition) versus response using GraphPad Prism software version 8.0 (GraphPad Software Inc., La Jolla, CA).

PCSK9 mRNA = PCSK9 mRNA expression in HepG2 cells by RTqPCR; assay type: cell-based, human; details: 24 h incubation, increasing concentrations
Experimental: To further investigate the mechanism of action of these compounds, we evaluated the PCSK9 mRNA levels after 24 h incubation with increasing concentrations of 5c, 6b, and 7.
Total RNA was extracted using the iScript RT‐qPCR Sample Prep reagent (Bio‐Rad), according to the manufacturer's instructions. QuantiNova SYBR Green RT‐PCR Kit (QIAGEN, Hilden, Germany) was used for qPCR, along with specific primers for 18S (FWD 5′‐[…]‐3′, REV 5′‐[…]‐3′) PCSK9 (FWD 5′‐CCTGCGCGTGCTCAACT‐3′, REV 5′‐[…]‐3′). The analyses were performed with the CFX96 Touch Real‐Time PCR Detection System (Bio‐Rad) with cycling conditions of 45 °C for 10 min, 95 °C for 5 min, and a repetition of 40 cycles at 95 °C for 5 s followed by 30 s at 60 °C. The data were expressed as Ct values and used for relative quantification of targets with ΔΔCt calculations. The ΔΔCt values were determined by multiplying the ratio value between the efficiency of specific primers and housekeeping 18S. The efficiency was calculated as ((10(‐1/slope))−1) × 100.

[3] = printed in Figures 5 and 8, HepG2, 24 h, read-out: CC50

Row | metabolic stability, percentage of intact compound recovered relative to control ([1]; MLM 1 mg/ml + NADPH-generating system, 60 min, 10 µM, HPLC) | Structure (SMILES) | metabolic stability/PCSK9 IC50 ratio (in words) [1] | CC50 at 24 h [2, 3] [µM] | PCSK9 mRNA expression (in words) (PCSK9 mRNA) | metabolic stability (in words) ([1]; 60 min) | CC50 at 24 h ([2]; 24 h incubation, HepG2, 0.4% FBS, 0.5-50.0 μM, read-out: CC50 (CI 95%)) [µM]
1 | exceeding 95% | Cc1cc2c(sc(=N)n2Cc2ccc(C(F)(F)F)cc2)c(=O)n1Cc1ccc(C(F)(F)F)cc1 [Compound 7, 2‐Imino‐6‐Methyl‐1,5‐Bis(4‐(Trifluoromethyl)benzyl)‐1,2‐Dihydrothiazolo[5,4‐c]pyridin‐4(5H)‐One] | higher metabolic stability/PCSK9 IC50 ratio | > 50 | strongly suppressed the PCSK9 mRNA expression | – | –
2 | – | Cc1cc(NCc2ccc(C(F)(F)F)cc2)cc(=O)n1Cc1ccc(C(F)(F)F)cc1 [Compound 5c] | – | 32.4 | strongly suppressed the PCSK9 mRNA expression | suboptimal metabolic stability | –
3 | – | Cc1cc(NCc2ccc(C(F)(F)F)cc2)c(Br)c(=O)n1Cc1ccc(C(F)(F)F)cc1 [Compound 6b, 3‐Bromo‐6‐Methyl‐1‐(4‐(Trifluoromethyl)Benzyl)‐4‐((4‐(Trifluoromethyl)Benzyl)Amino)pyridin‐2(1H)‐One] | higher metabolic stability/PCSK9 IC50 ratio | – | strongly suppressed the PCSK9 mRNA expression | greater stability compared to chlorinated 6a | 27
